# Measured values published in PubChem BioAssay AID1963828 (Molecular Pharmacology Branch, DTP, NCI, 2024).
# Test system: 991263-137-R1-J2-PDC complex spheroid viability
# Test: Anticancer human tumor 991263-137-R1-J2-PDC patient-derived colon adenocarcinoma cell line growth inhibition [POLQ]
# Details: for IC50: curve of first compound; for viability, T/C: stronger effect = lower value
# Method in brief: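 PDC + HUVEC + MSC complex spheroids; POLQ inhibitors ± partner drugs; top conc. at/near clinical Cmax, else 10 microM (SN-38 1 microM), half-log dilutions; 37 degrees C, 5% CO2.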
# [1] = second compound 0.0316 µM, first compound 0.00316 µM
# [2] = second compound 0.0316 µM, first compound 0.01 µM
# [3] = second compound 0.0316 µM, first compound 0.0316 µM
# [4] = second compound 0.0316 µM, first compound 0.1 µM
# [5] = second compound 0.1 µM, first compound 0.00316 µM
# [6] = second compound 0.1 µM, first compound 0.01 µM
# [7] = second compound 0.1 µM, first compound 0.0316 µM
# [8] = second compound 0.1 µM, first compound 0.1 µM
# [9] = second compound 0.316 µM, first compound 0.00316 µM
# [10] = second compound 0.316 µM, first compound 0.01 µM
# [11] = second compound 0.316 µM, first compound 0.0316 µM
# [12] = second compound 0.316 µM, first compound 0.1 µM
# [13] = second compound 1 µM, first compound 0.00316 µM
# [14] = second compound 1 µM, first compound 0.01 µM
# [15] = second compound 1 µM, first compound 0.0316 µM
# [16] = second compound 1 µM, first compound 0.1 µM
# [17] = second compound 3.16 µM, first compound 0.00316 µM
# [18] = second compound 3.16 µM, first compound 0.01 µM
# [19] = second compound 3.16 µM, first compound 0.0316 µM
# [20] = second compound 3.16 µM, first compound 0.1 µM
# [21] = second compound 10 µM, first compound 0.00316 µM
# [22] = second compound 10 µM, first compound 0.01 µM
# [23] = second compound 10 µM, first compound 0.0316 µM
# [24] = second compound 10 µM, first compound 0.1 µM
# [25] = second compound 0.0316 µM, first compound 0.316 µM
# [26] = second compound 0.0316 µM, first compound 1 µM
# [27] = second compound 0.1 µM, first compound 0.316 µM
# [28] = second compound 0.1 µM, first compound 1 µM
# [29] = second compound 0.316 µM, first compound 0.316 µM
# [30] = second compound 0.316 µM, first compound 1 µM
# [31] = second compound 1 µM, first compound 0.316 µM
# [32] = second compound 1 µM, first compound 1 µM
# [33] = second compound 3.16 µM, first compound 0.316 µM
# [34] = second compound 3.16 µM, first compound 1 µM
# [35] = second compound 10 µM, first compound 0.316 µM
# [36] = second compound 10 µM, first compound 1 µM
# [37] = second compound 0.0316 µM, first compound 3.16 µM
# [38] = second compound 0.0316 µM, first compound 10 µM
# [39] = second compound 0.1 µM, first compound 3.16 µM
# [40] = second compound 0.1 µM, first compound 10 µM
# [41] = second compound 0.316 µM, first compound 3.16 µM
# [42] = second compound 0.316 µM, first compound 10 µM
# [43] = second compound 1 µM, first compound 3.16 µM
# [44] = second compound 1 µM, first compound 10 µM
# [45] = second compound 3.16 µM, first compound 3.16 µM
# [46] = second compound 3.16 µM, first compound 10 µM
# [47] = second compound 10 µM, first compound 3.16 µM
# [48] = second compound 10 µM, first compound 10 µM
# 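Also: spheroids exposed to compounds for 7 days before readout.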
# 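For viability, T/C in this document: 100% = DMSO vehicle control viability.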
smiles,measurement,setting,value
CC[C@@]1(O)C(=O)OCc2c1cc1n(c2=O)Cc2cc3c(CN(C)C)c(O)ccc3nc2-1 + Nc1ccc(C#CCN(C(=O)Cc2ncc(C(F)(F)F)cc2C(F)(F)F)c2ccc(F)cc2)nn1,IC50,second compound 0.0316 µM,> 100 nM
same,IC50,second compound 0.1 µM,> 100 nM
same,IC50,second compound 0.316 µM,> 100 nM
same,IC50,second compound 1 µM,> 100 nM
same,IC50,second compound 3.16 µM,> 100 nM
same,IC50,second compound 10 µM,> 100 nM
same,"viability, T/C","second compound 0.0316 µM, first compound 0.000316 µM",94.8%
same,"viability, T/C","second compound 0.0316 µM, first compound 0.001 µM",92.6%
same,"viability, T/C",[1],92.4%
same,"viability, T/C",[2],101%
same,"viability, T/C",[3],99.8%
same,"viability, T/C",[4],80.2%
same,"viability, T/C","second compound 0.1 µM, first compound 0.000316 µM",111%
same,"viability, T/C","second compound 0.1 µM, first compound 0.001 µM",102%
same,"viability, T/C",[5],101%
same,"viability, T/C",[6],94.6%
same,"viability, T/C",[7],101%
same,"viability, T/C",[8],79.8%
same,"viability, T/C","second compound 0.316 µM, first compound 0.000316 µM",108%
same,"viability, T/C","second compound 0.316 µM, first compound 0.001 µM",109%
same,"viability, T/C",[9],95.4%
same,"viability, T/C",[10],107%
same,"viability, T/C",[11],104%
same,"viability, T/C",[12],76.8%
same,"viability, T/C","second compound 1 µM, first compound 0.000316 µM",104%
same,"viability, T/C","second compound 1 µM, first compound 0.001 µM",106%
same,"viability, T/C",[13],101%
same,"viability, T/C",[14],101%
same,"viability, T/C",[15],101%
same,"viability, T/C",[16],84.3%
same,"viability, T/C","second compound 3.16 µM, first compound 0.000316 µM",102%
same,"viability, T/C","second compound 3.16 µM, first compound 0.001 µM",94.9%
same,"viability, T/C",[17],105%
same,"viability, T/C",[18],93.1%
same,"viability, T/C",[19],93.6%
same,"viability, T/C",[20],65.6%
same,"viability, T/C","second compound 10 µM, first compound 0.000316 µM",102%
same,"viability, T/C","second compound 10 µM, first compound 0.001 µM",112%
same,"viability, T/C",[21],107%
same,"viability, T/C",[22],88.1%
same,"viability, T/C",[23],91.1%
same,"viability, T/C",[24],66.6%
CCc1c2c(nc3ccc(O)cc13)-c1cc3c(c(=O)n1C2)COC(=O)[C@]3(O)CC + Nc1ccc(C#CCN(C(=O)Cc2ncc(C(F)(F)F)cc2C(F)(F)F)c2ccc(F)cc2)nn1,IC50,second compound 0.0316 µM,81 nM
same,IC50,second compound 0.1 µM,62.1 nM
same,IC50,second compound 0.316 µM,101 nM
same,IC50,second compound 1 µM,110 nM
same,IC50,second compound 3.16 µM,90.9 nM
same,IC50,second compound 10 µM,94.1 nM
same,"viability, T/C",[1],90.7%
same,"viability, T/C",[2],76.1%
same,"viability, T/C",[3],51.9%
same,"viability, T/C",[4],51.2%
same,"viability, T/C",[25],42%
same,"viability, T/C",[26],26.2%
same,"viability, T/C",[5],95.9%
same,"viability, T/C",[6],78.6%
same,"viability, T/C",[7],52.9%
same,"viability, T/C",[8],45.3%
same,"viability, T/C",[27],42.8%
same,"viability, T/C",[28],30.2%
same,"viability, T/C",[9],102%
same,"viability, T/C",[10],89.6%
same,"viability, T/C",[11],58%
same,"viability, T/C",[12],52.9%
same,"viability, T/C",[29],39.8%
same,"viability, T/C",[30],25.6%
same,"viability, T/C",[13],100%
same,"viability, T/C",[14],81.5%
same,"viability, T/C",[15],56.7%
same,"viability, T/C",[16],55.4%
same,"viability, T/C",[31],42.8%
same,"viability, T/C",[32],28.2%
same,"viability, T/C",[17],89.7%
same,"viability, T/C",[18],72.7%
same,"viability, T/C",[19],59.1%
same,"viability, T/C",[20],48%
same,"viability, T/C",[33],43.6%
same,"viability, T/C",[34],24.3%
same,"viability, T/C",[21],75%
same,"viability, T/C",[22],65.1%
same,"viability, T/C",[23],58.3%
same,"viability, T/C",[24],53.3%
same,"viability, T/C",[35],35.7%
same,"viability, T/C",[36],24.5%
Nc1ccn(C2OC(CO)C(O)C2(F)F)c(=O)n1 (stereo not drawn) + Nc1ccc(C#CCN(C(=O)Cc2ncc(C(F)(F)F)cc2C(F)(F)F)c2ccc(F)cc2)nn1,IC50,second compound 0.0316 µM,5740 nM
same,IC50,second compound 0.1 µM,> 10000 nM
same,IC50,second compound 0.316 µM,5300 nM
same,IC50,second compound 1 µM,> 10000 nM
same,IC50,second compound 3.16 µM,> 10000 nM
same,IC50,second compound 10 µM,> 10000 nM
same,"viability, T/C",[3],96.1%
same,"viability, T/C",[4],75.6%
same,"viability, T/C",[25],64.4%
same,"viability, T/C",[26],58.4%
same,"viability, T/C",[37],55.2%
same,"viability, T/C",[38],45.8%
same,"viability, T/C",[7],89.6%
same,"viability, T/C",[8],77.5%
same,"viability, T/C",[27],59.2%
same,"viability, T/C",[28],61.7%
same,"viability, T/C",[39],59.9%
same,"viability, T/C",[40],47.6%
same,"viability, T/C",[11],94.3%
same,"viability, T/C",[12],74.1%
same,"viability, T/C",[29],65.9%
same,"viability, T/C",[30],64.2%
same,"viability, T/C",[41],57.3%
same,"viability, T/C",[42],43.1%
same,"viability, T/C",[15],92.6%
same,"viability, T/C",[16],68.3%
same,"viability, T/C",[31],69.5%
same,"viability, T/C",[32],59.8%
same,"viability, T/C",[43],55.8%
same,"viability, T/C",[44],50.2%
same,"viability, T/C",[19],104%
same,"viability, T/C",[20],82.1%
same,"viability, T/C",[33],69.4%
same,"viability, T/C",[34],62.5%
same,"viability, T/C",[45],63.4%
same,"viability, T/C",[46],51.2%
same,"viability, T/C",[23],104%
same,"viability, T/C",[24],89.6%
same,"viability, T/C",[35],71.1%
same,"viability, T/C",[36],69.5%
same,"viability, T/C",[47],64.3%
same,"viability, T/C",[48],60.7%
O=C(c1cc(Cc2n[nH]c(=O)c3ccccc23)ccc1F)N1CCN(C(=O)C2CC2)CC1 + Nc1ccc(C#CCN(C(=O)Cc2ncc(C(F)(F)F)cc2C(F)(F)F)c2ccc(F)cc2)nn1,IC50,second compound 0.0316 µM,> 10000 nM
same,IC50,second compound 0.1 µM,> 10000 nM
same,IC50,second compound 0.316 µM,> 10000 nM
same,IC50,second compound 1 µM,> 10000 nM
same,IC50,second compound 3.16 µM,> 10000 nM
same,IC50,second compound 10 µM,> 10000 nM
same,"viability, T/C",[3],105%
same,"viability, T/C",[4],101%
same,"viability, T/C",[25],90.1%
same,"viability, T/C",[26],98.5%
same,"viability, T/C",[37],98.2%
same,"viability, T/C",[38],99.8%
same,"viability, T/C",[7],101%
same,"viability, T/C",[8],97.4%
same,"viability, T/C",[27],90.3%
same,"viability, T/C",[28],96.1%
same,"viability, T/C",[39],110%
same,"viability, T/C",[40],90%
same,"viability, T/C",[11],106%
same,"viability, T/C",[12],104%
same,"viability, T/C",[29],93.8%
same,"viability, T/C",[30],97%
same,"viability, T/C",[41],101%
same,"viability, T/C",[42],97.2%
same,"viability, T/C",[15],104%
same,"viability, T/C",[16],96.1%
same,"viability, T/C",[31],94.3%
same,"viability, T/C",[32],90.3%
same,"viability, T/C",[43],105%
same,"viability, T/C",[44],90.4%
same,"viability, T/C",[19],103%
same,"viability, T/C",[20],103%
same,"viability, T/C",[33],95.4%
same,"viability, T/C",[34],100%
same,"viability, T/C",[45],105%
same,"viability, T/C",[46],105%
same,"viability, T/C",[23],95.5%
same,"viability, T/C",[24],93.6%
same,"viability, T/C",[35],104%
same,"viability, T/C",[36],96.7%
same,"viability, T/C",[47],97.1%
same,"viability, T/C",[48],102%
